{
  "source": "patent US7772207B2",
  "about": "“Combination of a CDK inhibitor and CS-682 or a metabolite thereof” (Cyclacel Limited, priority 2003, dated 2010)",
  "origin": "cited, not measured here",
  "key": {"[1]": {"system": "colon cancer"}, "[2]": {"conditions": "phase I, patients with a variety of cancers"}},
  "data": [
    {"smiles": "CCCCCCCCCCCCCCCC(=O)Nc1ccn([C@@H]2O[C@H](CO)[C@@H](O)[C@@H]2C#N)c(=O)n1", "note": "[(I), 1-(2-C-cyano-2-dioxy-β-D-arabino-pentofuranosyl)-N^4-palmitoyl cytosine]", "values": [
      {"measurement": "anticancer activity", "setting": "[1]; model of colon cancer", "result": "strong anticancer activity"},
      {"measurement": "increasing survival and preventing the spread of colon cancer metastases to the liver, compared with gemcitabine or 5-FU", "setting": "[1]; same model of colon cancer", "result": "superior to either gemcitabine or 5-FU"},
      {"measurement": "dose limiting toxicity", "setting": "[2]", "result": "myelosuppression"},
      {"measurement": "tolerability", "setting": "[2]", "result": "well tolerated"}
    ]}
  ]
}
